SMILES strings stand for the structures.

In general, IC50 refers to the concentration at which inhibition is half-maximal. Read a high IC50 as lower potency.

This assay has as its target Mutant B-Raf (V600E) enzyme (MT B-Raf) (Homo sapiens, UniProt P15056, V600E). Kind of assay: biochemical. As to conditions: B-Raf Alpha screen comparable to the described assay; phosphorylation of biotinylated HIS-MEK-AVI; results may be an average of two or more results.

Sequence of Mutant B-Raf (V600E) enzyme (MT B-Raf) (P15056 whole entry V600E): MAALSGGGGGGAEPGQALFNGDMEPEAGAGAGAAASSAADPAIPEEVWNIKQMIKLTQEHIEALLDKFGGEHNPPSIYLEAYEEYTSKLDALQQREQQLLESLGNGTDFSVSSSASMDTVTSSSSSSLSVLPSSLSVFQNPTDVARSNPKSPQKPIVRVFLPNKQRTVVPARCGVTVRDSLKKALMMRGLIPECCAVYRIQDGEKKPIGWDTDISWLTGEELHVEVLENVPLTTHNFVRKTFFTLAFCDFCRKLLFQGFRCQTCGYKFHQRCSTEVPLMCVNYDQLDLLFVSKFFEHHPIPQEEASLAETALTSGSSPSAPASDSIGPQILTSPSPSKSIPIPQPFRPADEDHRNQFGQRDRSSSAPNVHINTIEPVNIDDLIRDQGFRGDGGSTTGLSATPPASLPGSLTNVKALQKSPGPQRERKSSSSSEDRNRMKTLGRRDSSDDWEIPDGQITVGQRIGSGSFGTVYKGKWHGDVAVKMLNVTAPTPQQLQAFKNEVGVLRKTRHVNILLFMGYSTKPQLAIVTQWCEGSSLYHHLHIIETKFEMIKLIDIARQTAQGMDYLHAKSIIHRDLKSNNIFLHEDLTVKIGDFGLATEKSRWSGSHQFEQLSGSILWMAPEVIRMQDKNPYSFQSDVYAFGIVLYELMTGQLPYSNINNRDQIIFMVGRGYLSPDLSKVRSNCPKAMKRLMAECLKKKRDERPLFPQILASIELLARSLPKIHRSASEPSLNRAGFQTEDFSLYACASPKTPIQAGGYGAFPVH

In the case of `CNCCNC(=O)c1ccnc(Nc2ncc3cc(-c4ccncc4)ccc3n2)c1` [Example 66, N-[2-(Methylamino)ethyl]-2-[(6-pyridin-4-ylquinazolin-2-yl)amino]isonicotinamide], the IC50 was 700 nM. The molecule `CN(C)CCCNC(=O)c1ccc(Nc2ncc3cc(-c4ccncc4)ccc3n2)cc1` [Example 31, N-[3-(Dimethylamino)propyl]-4-[(6-pyridin-4-ylquinazolin-2-yl)amino]benzamide] yielded an IC50 of 82 nM. In the case of `c1cc(-c2ccc3nc(Nc4ccc(OCCN5CCOCC5)cc4)ncc3c2)ccn1` [Example 43, N-[4-(2-Morpholin-4-ylethoxy)phenyl]-6-pyridin-4-ylquinazolin-2-amine] it was 160 nM. Consider `CN1CCN(Cc2ccc(Nc3ncc4cc(-c5ccncc5)ccc4n3)cc2)CC1` [Example 132], for which the IC50 amounted to 73 nM.

`CCCNC(C)c1ccc(Nc2ncc3cc(-c4ccncc4)ccc3n2)cc1` (single isomer, unassigned) [Example 141] displayed an IC50 of 34 nM. Consider `c1cc(-c2ccc3nc(Nc4ccc(OCCN5CCCCC5)cc4)ncc3c2)ccn1` [Example 42, N-[4-(2-Piperidin-1-ylethoxy)phenyl]-6-pyridin-4-ylquinazolin-2-amine], for which the IC50 is 230 nM. Turning to `FC(F)(F)c1cccc(Nc2ncc3cc(-c4ccncc4)ccc3n2)c1` [Example 82, 6-Pyridin-4-yl-N-[3-(trifluoromethyl)phenyl]quinazolin-2-amine], the IC50 turned out to be 3100 nM. This IC50 lies about 13-fold higher than the previous one.

As for `COc1ccc(Nc2ncc3cc(-c4ccncc4)ccc3n2)cc1` [Example 41, N-(4-Methoxyphenyl)-6-pyridin-4-ylquinazolin-2-amine], the midpoint of inhibition, the IC50, lay at 460 nM.

The molecule `CC(C)Oc1cccc(Nc2ncc3cc(-c4ccncc4)ccc3n2)c1` [Example 86, N-(3-Isopropoxyphenyl)-6-pyridin-4-ylquinazolin-2-amine] had an IC50 of 1500 nM.

On to `CC(O)CCNC(=O)c1ccc(Nc2ncc3cc(-c4ccncc4)ccc3n2)cc1` (stereo not drawn) [Example 34, N-(3-Hydroxybutyl)-4-[(6-pyridin-4-ylquinazolin-2-yl)amino]benzamide], for which the concentration for half-maximal inhibition (IC50) is 270 nM. Compared with the last molecule, the IC50 is about 5.6-fold lower. Molecule `CC(NCCO)c1ccc(Nc2ncc3cc(-c4ccncc4)ccc3n2)cc1` (stereo not drawn) [Example 57, 2-[(1-{4-[(6-Pyridin-4-ylquinazolin-2-yl)amino]phenyl}ethyl)amino]ethanol] came in with an IC50 of 29 nM. This IC50 is about 9.3-fold lower than that of the molecule before. `COCCNC(=O)c1ccc(Nc2ncc3cc(-c4ccncc4F)ccc3n2)cc1` [Example 48, 4-{[6-(3-Fluoropyridin-4-yl)quinazolin-2-yl]amino}-N-(2-methoxyethyl)benzamide] yielded an IC50 of 270 nM. Take `c1cc(-c2ccc3nc(Nc4ccc(N5CCOCC5)cc4)ncc3c2)ccn1` [Example 79, N-(4-Morpholin-4-ylphenyl)-6-pyridin-4-ylquinazolin-2-amine]: half-maximal inhibition (IC50) required 130 nM. Turning to `CCOc1ccc(Nc2ncc3cc(-c4ccncc4)ccc3n2)cc1` [Example 97, N-(4-Ethoxyphenyl)-6-pyridin-4-ylquinazolin-2-amine], the IC50 came out at 450 nM.

`CC(O)CCNC(C)c1ccc(Nc2ncc3cc(-c4ccncc4)ccc3n2)cc1` (stereo not drawn) [Example 56, 4-[(1-{4-[(6-Pyridin-4-ylquinazolin-2-yl)amino]phenyl}ethyl)amino]butan-2-ol] came in with an IC50 of 26 nM. Under `O=C(NCCc1ccccn1)c1ccc(Nc2ncc3cc(-c4ccncc4)ccc3n2)cc1` [Example 20, N-(2-Pyridin-2-ylethyl)-4-[(6-pyridin-4-ylquinazolin-2-yl)amino]benzamide] stands 250 nM; under `CN(CCO)Cc1ccc(Nc2ncc3cc(-c4ccncc4)ccc3n2)cc1` [Example 75, 2-(Methyl{4-[(6-pyridin-4-ylquinazolin-2-yl)amino]benzyl}amino)ethanol], 24 nM; under `O=C(NCCOCCO)c1ccc(Nc2ncc3cc(-c4ccncc4)ccc3n2)cc1` [Example 8, N-[2-(2-Hydroxyethoxy)ethyl]-4-[(6-pyridin-4-ylquinazolin-2-yl)amino]benzamide], 120 nM. `CC(=O)N1CCN(C(=O)c2ccc(Nc3ncc4cc(-c5ccncc5)ccc4n3)cc2)CC1` [Example 119]: the IC50 turned out to be 64 nM.

`Cc1cc(Nc2ncc3cc(-c4ccncc4)ccc3n2)ccc1C(=O)NCCN(C)C` [Example 36, N-[2-(Dimethylamino)ethyl]-2-methyl-4-[(6-pyridin-4-ylquinazolin-2-yl)amino]benzamide] registered an IC50 of 95 nM. Molecule `O=C1CCCN1c1ccc(Nc2ncc3cc(-c4ccncc4)ccc3n2)cc1` [Example 54, 1-{4-[(6-Pyridin-4-ylquinazolin-2-yl)amino]phenyl}pyrrolidin-2-one] displayed an IC50 of 120 nM. This IC50 and that of the molecule before are within 1.5-fold of each other. As for `CC(NCC1CC1)c1ccc(Nc2ncc3cc(-c4ccncc4)ccc3n2)cc1` (stereo not drawn) [Example 136, N-(4-{1-[(Cyclopropylmethyl)amino]ethyl}phenyl)-6-pyridin-4-ylquinazolin-2-amine], the IC50 came out at 37 nM.

Regarding `COc1cc(Nc2ncc3cc(-c4ccncc4)ccc3n2)ccc1C` [Example 87, N-(3-Methoxy-4-methylphenyl)-6-pyridin-4-ylquinazolin-2-amine], inhibition was half-maximal at 2200 nM (IC50). Molecule `CNCCNC(=O)c1cccc(Nc2ncc3cc(-c4ccncc4)ccc3n2)n1` [Example 65, N-[2-(Methylamino)ethyl]-6-[(6-pyridin-4-ylquinazolin-2-yl)amino]pyridine-2-carboxamide] had an IC50 of 1000 nM. For the molecule `O=S(=O)(c1ccc(Nc2ncc3cc(-c4ccncc4)ccc3n2)cc1)C(F)F` [Example 95, N-{4-[(Difluoromethyl)sulfonyl]phenyl}-6-pyridin-4-ylquinazolin-2-amine], half-maximal inhibition (IC50) required 1000 nM. Take `CC(c1ccc(Nc2ncc3cc(-c4ccncc4)ccc3n2)cc1)N(C)CCCO` (stereo not drawn) [Example 135]: the IC50 was 29 nM.

Consider `CC(c1ccc(Nc2ncc3cc(-c4ccncc4)ccc3n2)cc1)N1CCCC1` (stereo not drawn) [Example 131, 6-(Pyridin-4-yl)-N-(4-(1-(pyrrolidin-1-yl)ethyl)phenyl)quinazolin-2-amine], for which it took 19 nM to reach half-maximal inhibition (IC50). `COCCNC(=O)c1ccc(Nc2ncc3cc(-c4ccncc4)ccc3n2)cc1Cl` [Example 10, 2-Chloro-N-(2-methoxyethyl)-4-[(6-pyridin-4-ylquinazolin-2-yl)amino]benzamide] gave an IC50 of 350 nM.

In turn, `O=C(NCC1CCNCC1)c1ccc(Nc2ncc3cc(-c4ccncc4)ccc3n2)cc1` [Example 64, N-(Piperidin-4-ylmethyl)-4-[(6-pyridin-4-ylquinazolin-2-yl)amino]benzamide] registered an IC50 of 22 nM. This IC50 is about 16-fold lower than that of the molecule before. Molecule `CC(=O)c1ccc(Nc2ncc3cc(-c4ccncc4)ccc3n2)cc1` [Example 53, 1-{4-[(6-Pyridin-4-ylquinazolin-2-yl)amino]phenyl}ethanone] gave an IC50 of 210 nM. Regarding `CN(CCCNC(=O)c1ccc(Nc2ncc3cc(-c4ccncc4)ccc3n2)cc1)C(=O)OC(C)(C)C` [Example 13, tert-Butyl methyl[3-({4-[(6-pyridin-4-ylquinazolin-2-yl)amino]benzoyl}amino)propyl]carbamate], the IC50 turned out to be 310 nM. As to `COCCNC(=O)c1ccnc(Nc2ncc3cc(-c4ccncc4)ccc3n2)c1` [Example 37, N-(2-Methoxyethyl)-2-[(6-pyridin-4-ylquinazolin-2-yl)amino]isonicotinamide], inhibition was half-maximal at 1700 nM (IC50). This IC50 lies about 5.5-fold higher than the previous one. Under `O=C(NCCO)c1ccc(Nc2ncc3cc(-c4ccncc4)ccc3n2)cc1` [Example 7, N-(2-Hydroxyethyl)-4-[(6-pyridin-4-ylquinazolin-2-yl)amino]benzamide] stands 140 nM; under `O=C(NCC1CCCCN1)c1ccc(Nc2ncc3cc(-c4ccncc4)ccc3n2)cc1` (stereo not drawn) [Example 68, N-Piperidin-2-ylmethyl-4-[(6-pyridin-4-ylquinazolin-2-yl)amino]benzamide], 110 nM; under `CCCCNS(=O)(=O)c1cccc(Nc2ncc3cc(-c4ccncc4)ccc3n2)c1` [Example 84, N-Butyl-3-[(6-pyridin-4-ylquinazolin-2-yl)amino]benzenesulfonamide], 820 nM. As to `c1cc(-c2ccc3nc(Nc4ccc(N5CCOCC5)nc4)ncc3c2)ccn1` [Example 90, N-(6-Morpholin-4-ylpyridin-3-yl)-6-pyridin-4-ylquinazolin-2-amine], the midpoint of inhibition, the IC50, lay at 110 nM. Against the preceding molecule, the IC50 is about 7.5-fold lower. Under `COCCNS(=O)(=O)c1ccc(Nc2ncc3cc(-c4ccncc4)ccc3n2)cc1` [Example 113] stands 100 nM; under `O=S(=O)(c1cccc(Nc2ncc3cc(-c4ccncc4)ccc3n2)c1)N1CCOCC1` [Example 102, N-[3-(Morpholin-4-ylsulfonyl)phenyl]-6-pyridin-4-ylquinazolin-2-amine], 520 nM; under `CN1CCCN(C(=O)c2ccc(Nc3ncc4cc(-c5ccncc5)ccc4n3)cc2)CC1` [Example 116, N-{4-[(4-Methyl-1,4-diazepan-1-yl)carbonyl]phenyl}-6-pyridin-4-ylquinazolin-2-amine], 63 nM. The molecule `Fc1cccc(Nc2ncc3cc(-c4ccncc4)ccc3n2)c1` [Example 98, N-(3-Fluorophenyl)-6-pyridin-4-ylquinazolin-2-amine] returned an IC50 of 630 nM. In turn, `FC(F)(F)Oc1ccc(Nc2ncc3cc(-c4ccncc4)ccc3n2)cc1` [Example 99, 6-Pyridin-4-yl-N-[4-(trifluoromethoxy)phenyl]quinazolin-2-amine] came in with an IC50 of 1100 nM. `O=C(NC1CCNCC1)c1ccc(Nc2ncc3cc(-c4ccncc4)ccc3n2)cc1` [Example 67, N-Piperidin-4-yl-4-[(6-pyridin-4-ylquinazolin-2-yl)amino]benzamide] displayed an IC50 of 110 nM. Compared with the last molecule, the IC50 is about 10-fold lower. For the molecule `Cc1cc(Nc2ncc3cc(-c4ccncc4)ccc3n2)ccc1C(C)N(C)P(C)(C)=O` (stereo not drawn) [Example 130], 120 nM corresponded to half-maximal inhibition (IC50). Turning to `Cc1cccc(Nc2ncc3cc(-c4ccncc4)ccc3n2)c1` [Example 83, N-(3-Methylphenyl)-6-pyridin-4-ylquinazolin-2-amine], the IC50 was 630 nM. Regarding `CC(C)(C)OC(=O)NCCNC(=O)c1ccc(Nc2ncc3cc(-c4ccncc4)ccc3n2)cc1` [Example 25, tert-Butyl [2-({4-[(6-pyridin-4-ylquinazolin-2-yl)amino]benzoyl}amino)ethyl]carbamate], the IC50 was found to be 390 nM.

The record behind these values is US20100216791A1, “PYRIDINYLQUINAZOLINAMINE DERIVATIVES AND THEIR USE AS B-RAF INHIBITORS” (ASTRAZENECA, priority 2006, published 2010).
